± gives the expanded uncertainty stated by the source.

Drawing on the NIST ThermoML archive (doi:10.1021/acs.jced.7b00278), this text covers mass density and refractive index for two molecules.

For series [1] the following is noted: 298.15 K; 101.33 kPa; Liquid; Vibrating tube method.
Series [2] in a line: refractive index (Na D-line) (dimensionless). The conditions noted are these: 298.15 K; 101.33 kPa; Liquid; Standard Abbe refractometry.
The nature of series [3]: wn = mass fraction of the nth substance listed. Particulars: 298.15 K, 101 kPa, Liquid, Vibrating tube method.

With `CCCC(=O)[O-].[NH3+]CCO` [2-hydroxy ethylammonium butanoate], the mass density in series [1] was determined as 1075.12 ± 6.3 kg/m3. In series [2], the refractive index was 1.4659 ± 0.0009.
On to `CCCC(=O)[O-].[NH3+]CCO` [2-hydroxy ethylammonium butanoate] + O, for which the mass density in series [3] (w1 = 0.0115) amounted to 999.43 ± 2.2 kg/m3; in series [3] (w1 = 0.05), 1006.63 ± 8.8 kg/m3; in series [3] (w1 = 0.101) it was 1016.39 ± 11 kg/m3; in series [3] (w1 = 0.2011) it was 1033.12 ± 8.9 kg/m3; in series [3] (w1 = 0.3051), 1046.73 ± 7.6 kg/m3; in series [3] (w1 = 0.3993), 1058.12 ± 7.3 kg/m3.
